≈ marks a conversion by molar mass, not a printed value.
What was measured:
Staphylococcus aureus [1] = assay: Antibacterial activity against Staphylococcus aureus was evaluated in infected mice; format: functional
Staphylococcus aureus [2] = assay: Minimum inhibitory concentration against Staphylococcus aureus ATCC 25923; format: functional
Enterococcus faecalis = assay: Minimum inhibitory concentration against Enterococcus faecalis ATCC 29212; format: functional
[3] = Minimum inhibitory concentration against […] ATCC 13813; format: functional; conditions: Streptococcus agalactiae
Streptococcus pyogenes = assay: Minimum inhibitory concentration against Streptococcus pyogenes ATCC 8668

Row | SMILES | MIC (Staphylococcus aureus [2]) [µg/mL] | MIC (Enterococcus faecalis) [µg/mL] | MIC [3] [µg/mL] | MIC (Streptococcus pyogenes) [µg/mL] | ED50 (Staphylococcus aureus [1]) [mg/kg]
1 | NC(=S)NC[C@H]1CN(c2ccc(N3CCN(c4ccccn4)CC3)c(F)c2)C(=O)O1 | 0.12 (≈ 0.279 µM) | 0.25 (≈ 0.581 µM) | 0.12 (≈ 0.279 µM) |  | 
2 | CC(=S)NC[C@H]1CN(c2ccc(N3CCN(c4cccc(F)c4)CC3)c(F)c2)C(=O)O1 | 0.12 (≈ 0.269 µM) | 0.03 (≈ 0.0672 µM) | 0.12 (≈ 0.269 µM) |  | 
3 | CC(=S)NC[C@H]1CN(c2ccc(N3CCN(c4ccccc4C)CC3)c(F)c2)C(=O)O1 | 0.12 (≈ 0.271 µM) | 0.05 (≈ 0.113 µM) | 0.12 (≈ 0.271 µM) |  | 
4 | COC(=S)NC[C@H]1CN(c2ccc(N3CCN(c4ccccn4)CC3)c(F)c2)C(=O)O1 | 0.12 (≈ 0.269 µM) | 0.12 (≈ 0.269 µM) | 0.06 (≈ 0.135 µM) |  | > 16
5 | CC(=S)NC[C@H]1CN(c2ccc(N3CCN(c4cccc(Cl)c4)CC3)c(F)c2)C(=O)O1 | 0.03 (≈ 0.0648 µM) | 0.06 (≈ 0.13 µM) | 0.03 (≈ 0.0648 µM) |  | > 16
6 | COc1cccc(N2CCN(c3ccc(N4C[C@H](CNC(=S)SC)OC4=O)cc3)CC2)c1 | 0.12 (≈ 0.254 µM) | 0.12 (≈ 0.254 µM) | 0.25 (≈ 0.529 µM) |  | 
7 | CC(=S)NC[C@H]1CN(c2ccc(N3CCN(c4ccccc4Cl)CC3)c(F)c2)C(=O)O1 | 0.12 (≈ 0.259 µM) | > 64 | 0.12 (≈ 0.259 µM) |  | 
8 | NC(=S)NC[C@H]1CN(c2ccc(N3CCN(c4ccccc4)CC3)cc2)C(=O)O1 | 0.12 (≈ 0.292 µM) | 0.12 (≈ 0.292 µM) | 0.25 (≈ 0.607 µM) |  | 
9 | COc1ccccc1N1CCN(c2ccc(N3C[C@H](CNC(N)=S)OC3=O)cc2F)CC1 | 0.25 (≈ 0.544 µM) | 0.25 (≈ 0.544 µM) | 0.25 (≈ 0.544 µM) |  | 
10 | O=C1O[C@@H](COC2CNCCN2)CN1c1ccc(N2CCN(c3ccccc3Cl)CC2)c(F)c1 (stereo partly drawn) | > 64 | > 64 | > 64 | > 64 | 
11 | NC(=S)NC[C@H]1CN(c2ccc(N3CCN(c4cccc(C(F)(F)F)c4)CC3)c(F)c2)C(=O)O1 | 0.25 (≈ 0.502 µM) | 0.25 (≈ 0.502 µM) | 0.12 (≈ 0.241 µM) |  | 
12 | NC(=S)NC[C@H]1CN(c2ccc(N3CCN(c4ccc(Cl)cc4)CC3)c(F)c2)C(=O)O1 | 0.12 (≈ 0.259 µM) | 0.5 (≈ 1.08 µM) | 0.12 (≈ 0.259 µM) |  | 
13 | NC(=S)NC[C@H]1CN(c2ccc(N3CCN(c4ccccc4)CC3)c(F)c2)C(=O)O1 | 0.06 (≈ 0.14 µM) | 0.12 (≈ 0.279 µM) | 0.06 (≈ 0.14 µM) |  | 
14 | CSC(=S)NC[C@H]1CN(c2ccc(N3CCN(c4cccc(Cl)c4)CC3)c(F)c2)C(=O)O1 | 0.12 (≈ 0.242 µM) | 0.5 (≈ 1.01 µM) | 1 (≈ 2.02 µM) |  | 
15 | NC(=S)NC[C@H]1CN(c2ccc(N3CCN(c4cccc(Cl)c4)CC3)c(F)c2)C(=O)O1 | 0.02 (≈ 0.0431 µM) | 0.06 (≈ 0.129 µM) | 0.008 (≈ 0.0172 µM) |  | > 16
16 | COC(=S)NC[C@H]1CN(c2ccc(N3CCN(c4cccc(OC)c4)CC3)c(F)c2)C(=O)O1 | 0.12 (≈ 0.253 µM) | 0.12 (≈ 0.253 µM) | 0.12 (≈ 0.253 µM) |  | 
17 | CC(=O)NC[C@H]1CN(c2ccc(N3CCOCC3)c(F)c2)C(=O)O1 [LINEZOLID] | 0.25 (≈ 0.741 µM) |  | 0.5 (≈ 1.48 µM) | 0.5 (≈ 1.48 µM) | 4

Further lines, with some results ahead:

Row | MIC (Staphylococcus aureus [2]) [µg/mL] | MIC (Enterococcus faecalis) [µg/mL] | MIC [3] [µg/mL] | MIC (Streptococcus pyogenes) [µg/mL] | SMILES | ED50 (Staphylococcus aureus [1]) [mg/kg]
18 | 0.06 (≈ 0.13 µM) | 0.12 (≈ 0.26 µM) | 0.25 (≈ 0.542 µM) |  | CSC(=S)NC[C@H]1CN(c2ccc(N3CCN(c4ccccn4)CC3)c(F)c2)C(=O)O1 | > 16
19 | > 64 | > 64 | > 64 | > 64 | O=C1O[C@@H](COc2ccccn2)CN1c1ccc(N2CCN(c3ccccc3Cl)CC2)c(F)c1 | 
20 | 0.25 (≈ 0.562 µM) | 0.25 (≈ 0.562 µM) | 0.12 (≈ 0.27 µM) |  | COC(=S)NC[C@H]1CN(c2ccc(N3CCN(c4ccccc4)CC3)c(F)c2)C(=O)O1 | 
21 | 0.03 (≈ 0.0653 µM) | 0.06 (≈ 0.131 µM) | 0.06 (≈ 0.131 µM) |  | COc1cccc(N2CCN(c3ccc(N4C[C@H](CNC(N)=S)OC4=O)cc3F)CC2)c1 | 
22 | 0.12 (≈ 0.253 µM) | 0.12 (≈ 0.253 µM) | 0.12 (≈ 0.253 µM) |  | CSC(=S)NC[C@H]1CN(c2ccc(N3CCN(c4ccccc4C)CC3)c(F)c2)C(=O)O1 | 
23 | 0.03 (≈ 0.0673 µM) | 0.06 (≈ 0.135 µM) | 0.06 (≈ 0.135 µM) |  | NC(=S)NC[C@H]1CN(c2ccc(N3CCN(c4ccccc4Cl)CC3)cc2)C(=O)O1 | 
24 | 0.12 (≈ 0.259 µM) | 0.25 (≈ 0.539 µM) | 0.12 (≈ 0.259 µM) |  | NC(=S)NC[C@H]1CN(c2ccc(N3CCN(c4ccccc4Cl)CC3)c(F)c2)C(=O)O1 | 
25 | 0.12 (≈ 0.259 µM) | 0.25 (≈ 0.54 µM) | 0.25 (≈ 0.54 µM) |  | CC(=S)NC[C@H]1CN(c2ccc(N3CCN(c4ccc(Cl)cc4)CC3)c(F)c2)C(=O)O1 | 
26 | 0.12 (≈ 0.251 µM) | 0.12 (≈ 0.251 µM) | 0.12 (≈ 0.251 µM) |  | COC(=S)NC[C@H]1CN(c2ccc(N3CCN(c4cccc(Cl)c4)CC3)c(F)c2)C(=O)O1 | 
27 | 0.12 (≈ 0.271 µM) | 0.25 (≈ 0.564 µM) | 0.12 (≈ 0.271 µM) |  | Cc1ccccc1N1CCN(c2ccc(N3C[C@H](CNC(N)=S)OC3=O)cc2F)CC1 | 
28 | > 64 | > 64 | > 64 | > 64 | O=C1O[C@@H](CO[n+]2ccco2)CN1c1ccc(N2CCN(c3ccccc3Cl)CC2)c(F)c1 | 
29 | 0.12 (≈ 0.28 µM) | 0.25 (≈ 0.583 µM) | 0.12 (≈ 0.28 µM) |  | CC(=S)NC[C@H]1CN(c2ccc(N3CCN(c4ccccc4)CC3)c(F)c2)C(=O)O1 | 
30 | 0.06 (≈ 0.14 µM) | 0.25 (≈ 0.582 µM) | 0.12 (≈ 0.279 µM) |  | CC(=S)NC[C@H]1CN(c2ccc(N3CCN(c4ccccn4)CC3)c(F)c2)C(=O)O1 | 

From ChEMBL document CHEMBL1137023, “Synthesis and antibacterial activity of arylpiperazinyl oxazolidinones with diversification of the N-substituents” (2004)
